Experimental data published in ChEMBL document CHEMBL1201862, “PubChem BioAssay data set” (2004).
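Five compound concentrations were applied to cells in 96-well plates for 48 hours; endpoints were derived by simple linear interpolation of the resulting dose-response curve. The concentration for 50% growth inhibition is given as GI50.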 Active and inactive are the calls of the source. No stated cut-off is given here; in the data, active = GI50 up to about 1.1 µM and inactive = higher.

Legend:
Experiment in all cases: DTP human tumour cell line panel, 48 h
OVCAR-4 = tested on: OVCAR-4
SK-MEL-5 = tested on: SK-MEL-5
CAKI-1 = tested on: CAKI-1
NCI-H226 = tested on: NCI-H226
OVCAR-8 = tested on: OVCAR-8
NCI/ADR-RES = tested on: NCI/ADR-RES
NCI-H23 = tested on: NCI-H23
HOP-62 = tested on: HOP-62
SK-OV-3 = tested on: SK-OV-3
HOP-92 = tested on: HOP-92
RXF 393 = tested on: RXF 393
U-251 = tested on: U-251
786-0 = tested on: 786-0
Hs-578T = tested on: Hs-578T
KM12 = tested on: KM12
SN12C = tested on: SN12C
OVCAR-5 = tested on: OVCAR-5
Malme-3M = tested on: Malme-3M

Compound | GI50 (OVCAR-4) | GI50 (SK-MEL-5) | GI50 (CAKI-1) | GI50 (NCI-H226) | GI50 (OVCAR-8) | GI50 (NCI/ADR-RES) | GI50 (NCI-H23) | GI50 (HOP-62) | GI50 (SK-OV-3) | GI50 (HOP-92) | GI50 (RXF 393) | GI50 (U-251) | GI50 (786-0) | GI50 (Hs-578T) | GI50 (KM12) | GI50 (SN12C) | GI50 (OVCAR-5) | GI50 (Malme-3M)
NC(=O)N/N=C/c1ccccc1O | > 100 µM (inactive) | > 100 µM (inactive) | > 100 µM (inactive) | > 100 µM (inactive) | > 100 µM (inactive) | > 100 µM (inactive) | > 100 µM (inactive) | > 100 µM (inactive) | > 100 µM (inactive) | > 100 µM (inactive) | > 100 µM (inactive) | > 100 µM (inactive) | > 100 µM (inactive) | 53.6 µM (inactive) | > 100 µM (inactive) | – | – | –
CC(=O)Oc1ccc2c(c1)c1c(OC(C)=O)c3ccccc3c(OC(C)=O)c1n2Cc1cccc(C)c1 | 33.3 µM (inactive) | – | 40.3 µM (inactive) | > 100 µM (inactive) | 48.6 µM (inactive) | > 100 µM (inactive) | 38.7 µM (inactive) | 25.3 µM (inactive) | 20.4 µM (inactive) | 1.5 µM (inactive) | 38.9 µM (inactive) | 22.3 µM (inactive) | 36.2 µM (inactive) | 24.9 µM (inactive) | 28.4 µM (inactive) | > 100 µM (inactive) | 34.4 µM (inactive) | 77.6 µM (inactive)
O=C(OCC1OC2OC(c3ccccc3)(n3ccc4c([N+](=O)[O-])ccnc43)OC2C1OC(=O)c1ccccc1)c1ccccc1 (stereo not given) | > 100 µM (inactive) | > 100 µM (inactive) | > 100 µM (inactive) | > 100 µM (inactive) | > 100 µM (inactive) | > 100 µM (inactive) | > 100 µM (inactive) | > 100 µM (inactive) | > 100 µM (inactive) | > 100 µM (inactive) | – | > 100 µM (inactive) | > 100 µM (inactive) | 64.7 µM (inactive) | > 100 µM (inactive) | > 100 µM (inactive) | > 100 µM (inactive) | > 100 µM (inactive)
CC1(C)CC2C(=O)c3ccccc3NC2c2ccccc21 (stereo not given) | 57 µM (inactive) | 3.5 µM (inactive) | 6.32 µM (inactive) | 11.9 µM (inactive) | 5.96 µM (inactive) | 3.49 µM (inactive) | 4.98 µM (inactive) | 3.75 µM (inactive) | – | > 24.6 µM (inactive) | 1.87 µM (inactive) | 5.47 µM (inactive) | 3.94 µM (inactive) | 2.87 µM (inactive) | 4.3 µM (inactive) | 5.79 µM (inactive) | > 26.2 µM (inactive) | 4.99 µM (inactive)
CCOC(=O)C(Cc1ccc(OC(=O)OC(C)(C)C)cc1)NC(=O)OC(C)(C)C (stereo not given) | > 100 µM (inactive) | > 100 µM (inactive) | > 100 µM (inactive) | > 100 µM (inactive) | 37.4 µM (inactive) | 49.9 µM (inactive) | > 100 µM (inactive) | > 100 µM (inactive) | > 100 µM (inactive) | – | 53.2 µM (inactive) | 37.2 µM (inactive) | 34.8 µM (inactive) | 47.5 µM (inactive) | 70.6 µM (inactive) | 44.8 µM (inactive) | > 100 µM (inactive) | > 100 µM (inactive)
CC1=CC(=O)/C(=C/NC(=S)C(N)=S)C(=O)O1 | > 100 µM (inactive) | > 100 µM (inactive) | > 100 µM (inactive) | > 100 µM (inactive) | > 100 µM (inactive) | > 100 µM (inactive) | > 100 µM (inactive) | > 100 µM (inactive) | > 100 µM (inactive) | > 100 µM (inactive) | > 100 µM (inactive) | > 100 µM (inactive) | > 100 µM (inactive) | > 100 µM (inactive) | > 100 µM (inactive) | > 100 µM (inactive) | > 100 µM (inactive) | –
Cc1n[n+]([O-])c(C)cc1[N+](=O)[O-] | 19.4 µM (inactive) | 16.3 µM (inactive) | – | 26.9 µM (inactive) | 15.5 µM (inactive) | 20.6 µM (inactive) | 16 µM (inactive) | 19.5 µM (inactive) | 93.8 µM (inactive) | 16.8 µM (inactive) | 25.2 µM (inactive) | 22.4 µM (inactive) | 27.9 µM (inactive) | 28.6 µM (inactive) | – | 14.9 µM (inactive) | 19.5 µM (inactive) | 20.9 µM (inactive)
CC(=O)OC1=CC2=CC[C@H]3[C@@H]4CCC(=O)[C@@]4(C)CC(=O)[C@]3(S)[C@@]2(C)CC1 | 57.8 µM (inactive) | 31.6 µM (inactive) | 35.2 µM (inactive) | – | 31.3 µM (inactive) | 75.7 µM (inactive) | 36.6 µM (inactive) | 38.9 µM (inactive) | 65.6 µM (inactive) | 24.8 µM (inactive) | 18.7 µM (inactive) | 29.6 µM (inactive) | 27.8 µM (inactive) | 25.1 µM (inactive) | 26.3 µM (inactive) | 37.6 µM (inactive) | > 100 µM (inactive) | 22.8 µM (inactive)
C/C(=C/C(=O)Nn1c(Cc2ccccc2)n[nH]c1=O)C(=O)O | > 100 µM (inactive) | > 100 µM (inactive) | > 100 µM (inactive) | > 100 µM (inactive) | > 100 µM (inactive) | > 100 µM (inactive) | > 100 µM (inactive) | > 100 µM (inactive) | > 100 µM (inactive) | – | > 100 µM (inactive) | > 100 µM (inactive) | > 100 µM (inactive) | > 100 µM (inactive) | > 100 µM (inactive) | > 100 µM (inactive) | > 100 µM (inactive) | > 100 µM (inactive)
COCN(CCC1=CCCCC1)C(=O)OC | > 100 µM (inactive) | 81.7 µM (inactive) | > 100 µM (inactive) | – | > 100 µM (inactive) | > 100 µM (inactive) | 51.6 µM (inactive) | > 100 µM (inactive) | > 100 µM (inactive) | > 100 µM (inactive) | > 100 µM (inactive) | > 100 µM (inactive) | > 100 µM (inactive) | > 100 µM (inactive) | > 100 µM (inactive) | – | > 100 µM (inactive) | > 100 µM (inactive)
O=CC1C(=O)Nc2nc3ccccc3n2C1c1ccccc1 (stereo not given) | 24.7 µM (inactive) | 14.6 µM (inactive) | 21.1 µM (inactive) | 17.1 µM (inactive) | 11.7 µM (inactive) | 54.7 µM (inactive) | 19.2 µM (inactive) | 5.06 µM (inactive) | – | 12.4 µM (inactive) | 0.183 µM (active) | 14.4 µM (inactive) | 12.4 µM (inactive) | 31.6 µM (inactive) | 14.6 µM (inactive) | 5.7 µM (inactive) | 25.2 µM (inactive) | 18.8 µM (inactive)
O=C1/C(=C/c2ccc(Cl)cc2)N=C(c2ccccc2)N1C1Nc2cc3c(cc2S1)NC(N1C(=O)/C(=C/c2ccc(Cl)cc2)N=C1c1ccccc1)S3 (stereo not given) | 59.2 µM (inactive) | 34.2 µM (inactive) | > 100 µM (inactive) | > 100 µM (inactive) | 39.1 µM (inactive) | 63.8 µM (inactive) | > 100 µM (inactive) | 90.2 µM (inactive) | > 100 µM (inactive) | 48.6 µM (inactive) | 76.6 µM (inactive) | 32.3 µM (inactive) | 87.3 µM (inactive) | 35.2 µM (inactive) | 54 µM (inactive) | – | > 100 µM (inactive) | –
COc1ccc(/C=C2/C(=O)N(/C=C3\C(=O)Oc4ccccc4C3=O)/C(=N/C(C)=O)N2C)cc1OC | > 100 µM (inactive) | > 100 µM (inactive) | > 100 µM (inactive) | > 100 µM (inactive) | > 100 µM (inactive) | > 100 µM (inactive) | > 100 µM (inactive) | > 100 µM (inactive) | > 100 µM (inactive) | – | > 100 µM (inactive) | > 100 µM (inactive) | > 100 µM (inactive) | > 100 µM (inactive) | > 100 µM (inactive) | > 100 µM (inactive) | > 100 µM (inactive) | > 100 µM (inactive)
C/C(=C\COP(=O)(O)OP(=O)(O)O)CC/C=C(\C)CNc1c(F)c(F)c(F)c(F)c1F | > 100 µM (inactive) | > 100 µM (inactive) | > 100 µM (inactive) | 20.3 µM (inactive) | > 64.3 µM (inactive) | > 100 µM (inactive) | > 100 µM (inactive) | > 100 µM (inactive) | > 100 µM (inactive) | 82.2 µM (inactive) | > 22.9 µM (inactive) | > 100 µM (inactive) | > 100 µM (inactive) | 31 µM (inactive) | > 100 µM (inactive) | > 56.1 µM (inactive) | > 100 µM (inactive) | –
c1cc2ccc3cc4ncccc4c4ccc(c1)c2c34 | – | – | 18.5 µM (inactive) | 17.5 µM (inactive) | 6.82 µM (inactive) | 31.6 µM (inactive) | 27.5 µM (inactive) | 19.9 µM (inactive) | 37.2 µM (inactive) | 17.4 µM (inactive) | 46.8 µM (inactive) | 17.9 µM (inactive) | 18.8 µM (inactive) | > 100 µM (inactive) | 10.5 µM (inactive) | 31.4 µM (inactive) | 84.7 µM (inactive) | 70.8 µM (inactive)
Clc1cccc2[nH]ncc12 | > 100 µM (inactive) | > 100 µM (inactive) | 68.4 µM (inactive) | > 100 µM (inactive) | > 100 µM (inactive) | > 100 µM (inactive) | – | > 100 µM (inactive) | > 100 µM (inactive) | > 100 µM (inactive) | 51.8 µM (inactive) | > 100 µM (inactive) | > 100 µM (inactive) | 76 µM (inactive) | > 100 µM (inactive) | > 100 µM (inactive) | > 100 µM (inactive) | –
